Counter-ions that a name gives are not always drawn. Like-named read-outs stand apart in the source and are kept apart here.
Legend:
[1] = system: HiBiT-tagged HTT protein in K562 cells; assay: HiBit protein abundance assay, HTT; format: cell-based, human; conditions: K562 HiBiT-modified cells, 24 hours, luminescence
Procedure: Compounds described herein were used to screen for effects on quantitative protein abundance using a HiBit assay system (Promega). Quantitative protein abundance was determined by measuring the protein levels of HiBit-tagged protein targets expressed in cell culture via luminescence using the Nano-Glo HiBiT Lytic Detection System, which uses a split complementation assay format to reconstitute NanoBiT enzyme to generate a luminescent signal. A protein abundance assay was developed such that endogenous protein targets could be modified with the HiBiT peptide tag and their abundance could be assessed after compound treatment. Briefly, K562 cell lines containing a HiBiT-modification were treated with various compounds described herein (e.g., compounds of Formulas (I), (II), or (III)). After treatment for 24 hours, the protein abundance of a specific target was determined by measuring luminescence. • Promega Nano-Glo HiBiT Lytic Detection System (cat #N3030) • Corning 384-well TC-treated microplates (cat #3570) • Synthego Engineered Cells Knock-In Clones [table] Cells were maintained in IMDM with 10% FBS. Before the assay, cells were diluted with phenolphthalein-free growth media (IMDM+1% FBS media) and were seeded in a 384-well plate at a density of 10000 cells/well (for each cell line listed in Table 6). Each compound was prepared as a 10-point 3-fold serial dilution in DMSO with the top dose at a final concentration of 10 μM in the well. Unmodified K562 cells were added at the previously specified density with DMSO to serve as an assay baseline and positive control (PC) and DMSO only with the respective modified cell lines was added to the negative control (NC) columns. Final DMSO concentration was kept at or below 0.25%. Treated cell plates were placed in an incubator at 37° C. with 5% CO2 for 24 hours. After 24 hours, 25 μL of Complete HiBit Lytic reagent was added to each well at room temperature (e.g. one plate requiring 10 mL Lytic Buffer, 100 μL LgBiT Protein, 200 μL Lytic Substrate), shaken for 5 minutes at 600 RPM, then left to sit for 10 minutes for signal to stabilize before reading on a Spark Cyto plate reader (Tecan) with a 500 ms measurement time. To determine compound effects on protein abundance of each target in Table 6, the percent response for each respective cell line was calculated at each compound concentration as follows: For the normalized response at each concentration, a four-parameter logistical regression was fit to the data and the response was interpolated at the 50% value to determine a concentration for protein abundance at 50% (IC50) the untreated control.

MYB mRNA = assay: RT-qPCR splicing assay, MYB canonical (CJ) and alternative (AJ) junction mRNA; format: cell-based; conditions: Homo sapiens; for IC50: read-out: MYB CJ IC50; for AC50: read-out: MYB AJ AC50
Procedure, shortened: (§1)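 Splice-junction mRNAs (CJ, AJ) measured by TaqMan one-step RT-qPCR on cell lysates, using PPIA as reference for adherent A673 and GAPDH or GUSB for K562. Cells exposed for 24 h to 11 threefold concentrations up to 10 uM final, with DMSO at or below 0.25%.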

HTT mRNA = assay: RT-qPCR splicing assay, HTT canonical (CJ) and alternative (AJ) junction mRNA; format: cell-based; conditions: Homo sapiens; for IC50: read-out: HTT CJ IC50; for AC50: read-out: HTT AJ AC50
Procedure, shortened: as §1

[2] = decrease in CJ mRNA levels, larger panel of genes, Table 3
[3] = decrease in canonical junction mRNA, A673 or K562 cells, 24 hours treatment, Table 2
[4] = increase in alternative junction mRNA, A673 or K562 cells, 24 hours treatment, Table 2

| IC50 [1] [nM] | IC50 (MYB mRNA; [2]) [nM] | IC50 (MYB mRNA; [3]) [nM] | IC50 (HTT mRNA; [2]) [nM] | IC50 (HTT mRNA; [3]) [nM] | SMILES | AC50 (MYB mRNA; [4]) [nM] | AC50 (HTT mRNA; [4]) [nM] | AC50 (MYB mRNA; 24 h) [nM] | IC50 (MYB mRNA; 24 h) [nM] | IC50 (MYB mRNA) [nM] | AC50 (HTT mRNA; 24 h) [nM] | IC50 (HTT mRNA; 24 h) [nM] | IC50 (HTT mRNA) [nM] |
| --- | --- | --- | --- | --- | --- | --- | --- | --- | --- | --- | --- | --- | --- |
| < 100 | 100 to 1000 | 100 to 1000 | < 100 | < 100 | CCN1CCC(n2cc3cc(-c4cc(C)c5nc(C)cn5n4)cc(F)c3n2)CC12CC2 (stereo not drawn) [Compound 177, 6-[2-(4-ethyl-4-azaspiro[2.5]octan-7-yl)-7-fluoro-indazol-5-yl]-2,8-dimethyl-imidazo[1,2-b]pyridazine] | 100 to 1000 | < 100 | – | – | – | – | – | – |
| 100 to 1000 | 1000 to 10000 | 1000 to 10000 | 100 to 1000 | 100 to 1000 | CCN1CCC(n2cc3cc(-c4cc(F)c5nn(C)cc5c4)cc(F)c3n2)CC1 [Compound 104, 2-(1-ethyl-4-piperidyl)-7-fluoro-5-(7-fluoro-2-methyl-indazol-5-yl)indazole] | 1000 to 10000 | 100 to 1000 | – | – | – | – | – | – |
| 100 to 1000 | 1000 to 10000 | 1000 to 10000 | 100 to 1000 | 100 to 1000 | Cc1nc2c(C)c(O)c(-c3cc(F)c4nn(C5CCNCC5)cc4c3)cc2o1 [Compound 123, 6-[7-fluoro-2-(4-piperidyl)indazol-5-yl]-2,4-dimethyl-1,3-benzoxazol-5-ol] | 1000 to 10000 | 100 to 1000 | – | – | – | – | – | – |
| 1000 to 10000 | 1000 to 10000 | 1000 to 10000 | > 10000 | > 10000 | Cc1ccc2nc(-c3cc(F)c4nn(C5CCNCC5)cc4c3)ccc2n1 [Compound 157, 2-[7-fluoro-2-(4-piperidyl)indazol-5-yl]-6-methyl-1,5-naphthyridine] | > 10000 | > 10000 | – | – | – | – | – | – |
| 1000 to 10000 | 1000 to 10000 | 1000 to 10000 | 1000 to 10000 | 1000 to 10000 | COc1cc(-c2cc3cn(C)nc3cc2O)nc2cn(C3CCNCC3)nc12 [Compound 140, 5-[7-methoxy-2-(4-piperidyl)pyrazolo[4,3-b]pyridin-5-yl]-2-methyl-indazol-6-ol] | 1000 to 10000 | 1000 to 10000 | – | – | – | – | – | – |
| < 100 | 100 to 1000 | 100 to 1000 | < 100 | < 100 | Cc1cn2nc(-c3cc4cn(C5CCNCC5)nc4cc3O)cc(C)c2n1 [Compound 154, 5-(2,8-dimethylimidazo[1,2-b]pyridazin-6-yl)-2-(piperidin-4-yl)-2H-indazol-6-ol] | 100 to 1000 | 100 to 1000 | – | – | – | – | – | – |
| 1000 to 10000 | > 10000 | > 10000 | 1000 to 10000 | 1000 to 10000 | Cc1c(O)c(-c2cc(F)c3nn(C4CCNCC4)cc3c2)cc2cn(C)nc12 [Compound 126, 5-[7-fluoro-2-(4-piperidyl)indazol-5-yl]-2,7-dimethyl-indazol-6-ol] | > 10000 | > 10000 | – | – | – | – | – | – |
| 1000 to 10000 | 1000 to 10000 | 1000 to 10000 | 1000 to 10000 | 1000 to 10000 | Cc1nc2ccc(-c3cc(F)c4nn(C5CCNCC5)cc4c3)cc2s1 [Compound 134, 6-(7-fluoro-2-(piperidin-4-yl)-2H-indazol-5-yl)-2-methylbenzo[d]thiazole] | > 10000 | > 10000 | – | – | – | – | – | – |

More lines, now with the values behind:

| SMILES | IC50 [1] [nM] | IC50 (MYB mRNA; [2]) [nM] | IC50 (MYB mRNA; [3]) [nM] | IC50 (HTT mRNA; [2]) [nM] | IC50 (HTT mRNA; [3]) [nM] | AC50 (MYB mRNA; [4]) [nM] | AC50 (HTT mRNA; [4]) [nM] | AC50 (MYB mRNA; 24 h) [nM] | IC50 (MYB mRNA; 24 h) [nM] | IC50 (MYB mRNA) [nM] | AC50 (HTT mRNA; 24 h) [nM] | IC50 (HTT mRNA; 24 h) [nM] | IC50 (HTT mRNA) [nM] |
| --- | --- | --- | --- | --- | --- | --- | --- | --- | --- | --- | --- | --- | --- |
| Cc1ncc2cc(-c3cc(F)c4nn(C5CCNCC5)cc4c3)ccc2n1 [Compound 165, 6-[7-fluoro-2-(4-piperidyl)indazol-5-yl]-2-methyl-quinazoline] | > 10000 | > 10000 | > 10000 | > 10000 | > 10000 | > 10000 | > 10000 | – | – | – | – | – | – |
| Cc1cn2nc(-c3cc(F)c4nn(C5CCNCC5)cc4c3)cc(C)c2n1 [Compound 122, 6-(7-fluoro-2-(piperidin-4-yl)-2H-indazol-5-yl)-2,8-dimethylimidazo [1,2-b]pyridazine hydrochloride salt] | < 100 | – | – | – | – | – | – | < 100 | < 100 | < 100 | < 100 | < 100 | < 100 |
| Cn1cc2cc(-c3cc(F)c4nn(C5CCNCC5)cc4c3)ccc2n1 [Compound 145, 7-fluoro-5-(2-methylindazol-5-yl)-2-(4-piperidyl)indazole] | 100 to 1000 | 1000 to 10000 | 1000 to 10000 | 100 to 1000 | 100 to 1000 | 100 to 1000 | 100 to 1000 | – | – | – | – | – | – |
| Cc1cn2nc(-c3cc(F)c4nn(C5CCN(CC6CC6)C6(CC6)C5)cc4c3)cc(C)c2n1 (stereo not drawn) [Compound 183, 6-[2-[4-(cyclopropylmethyl)-4-azaspiro[2.5]octan-7-yl]-7-fluoro-indazol-5-yl]-2,8-dimethyl-imidazo[1,2-b]pyridazine] | < 100 | 100 to 1000 | 100 to 1000 | < 100 | < 100 | 100 to 1000 | < 100 | – | – | – | – | – | – |
| Cc1cn2nc(-c3cc(F)c4nn(C5CCN(CCO)CC5)cc4c3)cc(C)c2n1 [Compound 160, 2-[4-[5-(2,8-dimethylimidazo[1,2-b]pyridazin-6-yl)-7-fluoro-indazol-2-yl]-1-piperidyl]ethanol] | < 100 | – | – | – | – | – | – | 100 to 1000 | 100 to 1000 | 100 to 1000 | < 100 | < 100 | < 100 |
| Cc1cn2nc(-c3cc(F)c4nn(C5CCNCC5F)cc4c3)cc(C)c2n1 (stereo not drawn) [Compound 166, 6-[7-fluoro-2-(3-fluoro-4-piperidyl)indazol-5-yl]-2,8-dimethyl-imidazo [1,2-b]pyridazine] | < 100 | 100 to 1000 | 100 to 1000 | < 100 | < 100 | 100 to 1000 | < 100 | – | – | – | – | – | – |
| Cc1cn2nc(-c3cc(F)c4nn(C5CCN(CCO)C6(CC6)C5)cc4c3)cc(C)c2n1 (stereo not drawn) [Compound 180, 2-[7-[5-(2,8-dimethylimidazo[1,2-b]pyridazin-6-yl)-7-fluoro-indazol-2-yl]-4-azaspiro[2.5]octan-4-yl]ethanol] | < 100 | – | – | – | – | – | – | 100 to 1000 | 100 to 1000 | 100 to 1000 | < 100 | < 100 | < 100 |
| Cc1nc2c(C)cc(-n3cc4cc(N5CCNCC5)cc(F)c4n3)cc2o1 [Compound 119, 6-(7-fluoro-5-piperazin-1-yl-indazol-2-yl)-2,4-dimethyl-1,3-benzoxazole] | > 10000 | > 10000 | > 10000 | > 10000 | > 10000 | > 10000 | > 10000 | – | – | – | – | – | – |
| COc1cc(-c2cc(C)c3nc(C)cn3n2)cc2cn(C3CCNCC3)nc12 [Compound 155, 6-(7-methoxy-2-(piperidin-4-yl)-2H-indazol-5-yl)-2,8-dimethylimidazo [1,2-b]pyridazine] | < 100 | 100 to 1000 | 100 to 1000 | < 100 | < 100 | 100 to 1000 | 100 to 1000 | – | – | – | – | – | – |
| Cc1cn2nc(-c3cc(F)c4nn(C5CCN(C)C6(CC6)C5)cc4c3)cc(C)c2n1 (stereo not drawn) [Compound 174, 6-[7-fluoro-2-(4-methyl-4-azaspiro[2.5]octan-7-yl)indazol-5-yl]-2,8-dimethyl-imidazo[1,2-b]pyridazine] | < 100 | 100 to 1000 | 100 to 1000 | < 100 | < 100 | 100 to 1000 | < 100 | – | – | – | – | – | – |
